According to the NIST ThermoML archive (doi:10.1021/je060271a):

Conditions: 323.14 K, Liquid, Vibrating tube method

CCCCCCC(=O)OCC(COC(=O)CCCCCC)(COC(=O)CCCCCC)COC(=O)CCCCCC [pentaerythritol tetraheptanoate]
Conditions	mass density [kg/m3]
1867.1 kPa	956.8
1879.2 kPa	956.9
1889.3 kPa	956.8
1901.4 kPa	957
1911.9 kPa	956.9
1922.6 kPa	956.9
1933.4 kPa	956.9
1945.7 kPa	956.9
1956.8 kPa	957
1967.4 kPa	957
1980.8 kPa	957
1992.6 kPa	957
2003.7 kPa	957.1
2015.1 kPa	956.9
2026.2 kPa	956.9
2040.3 kPa	957.1
2051.7 kPa	957
2063 kPa	957
2075 kPa	956.9
2089.2 kPa	957.1
2101.9 kPa	957
2226.1 kPa	957
2302.3 kPa	957.1
2543.1 kPa	957.3
2581.9 kPa	957.3
2614.7 kPa	957.4
2750.1 kPa	957.5
2958.7 kPa	957.6
3185.1 kPa	957.8
3256.6 kPa	957.9
3279.3 kPa	957.8
3302.3 kPa	957.9
3329.7 kPa	957.8
3352.8 kPa	957.8
3377 kPa	957.9
3405.8 kPa	957.9
3429.7 kPa	958.1
3454.8 kPa	958
3479.6 kPa	958
3509.6 kPa	958
3534.6 kPa	958.1
3565.2 kPa	957.9
3591.4 kPa	958.1
3617.6 kPa	958
3974.4 kPa	958.4
4012.4 kPa	958.4
4041.1 kPa	958.3
4057.6 kPa	958.4
4063.1 kPa	958.4
4064.9 kPa	958.3
4065.5 kPa	958.5
4066.2 kPa	958.5
4067.3 kPa	958.5
4068.5 kPa	958.5
4069.4 kPa	958.6
4069.5 kPa	958.5
4070.6 kPa	958.4
4070.9 kPa	958.4
4071.6 kPa	958.4
4087 kPa	958.4
4104.9 kPa	958.6
4128 kPa	958.5
4142.2 kPa	958.4
4163.9 kPa	958.4
4182.2 kPa	958.4
4200.8 kPa	958.5
4223.1 kPa	958.5
4242.2 kPa	958.5
4261 kPa	958.6
4283.7 kPa	958.6
4303.6 kPa	958.5
4323.2 kPa	958.5
4347.4 kPa	958.6
4367.2 kPa	958.6
4384.2 kPa	958.6
4401.5 kPa	958.6
4419 kPa	958.8
4440.1 kPa	958.7
4458.6 kPa	958.6
4475.9 kPa	958.6
4487.7 kPa	958.7
4498.8 kPa	958.7
4507.3 kPa	958.8
4516.1 kPa	958.6
4528.2 kPa	958.7
4546.9 kPa	958.7
4567.4 kPa	958.6
4588 kPa	958.7
4612.9 kPa	958.7
4634.2 kPa	958.7
4656 kPa	958.8
4677.4 kPa	958.8
4703.4 kPa	958.9
4725.2 kPa	958.9
4747.6 kPa	958.9
4774 kPa	958.9
4796.4 kPa	958.9
4819 kPa	958.9
4845.9 kPa	958.9
4869.6 kPa	959
4893.1 kPa	959
4921 kPa	959
4945 kPa	958.9
4968.9 kPa	959
4997.5 kPa	959
5022.2 kPa	959
5047.1 kPa	959.1
5072.5 kPa	959.1
5103.3 kPa	959.1
5129.3 kPa	959.1
5156.3 kPa	959.1
5189.2 kPa	959.2
5217.4 kPa	959.1
5240.4 kPa	959.1
5260.4 kPa	959.1
5280.7 kPa	959.4
5304 kPa	959.2
5323.4 kPa	959.2
5347.3 kPa	959.4
5367.7 kPa	959.3
5388.5 kPa	959.3
5408.9 kPa	959.3
5429.5 kPa	959.2
5454.7 kPa	959.2
5475.8 kPa	959.3
5497.3 kPa	959.3
5522.7 kPa	959.4
5543.9 kPa	959.5
5565.6 kPa	959.4
5591.3 kPa	959.3
5613.3 kPa	959.5
5635.4 kPa	959.4
5662.4 kPa	959.4
5684.7 kPa	959.6
5707.9 kPa	959.4
5735.2 kPa	959.5
5758 kPa	959.5
5781.4 kPa	959.5
5804.9 kPa	959.7
5833.6 kPa	959.6
5857.5 kPa	959.6
5886 kPa	959.5
5910.2 kPa	959.7
5935.4 kPa	959.7
5964.8 kPa	959.7
5989.9 kPa	959.7
6015.7 kPa	959.6
6041.2 kPa	959.8
6072.5 kPa	959.7
6099.5 kPa	959.8
6127 kPa	959.7
6154.7 kPa	959.8
6180.8 kPa	959.8
6202.1 kPa	959.8
6224.2 kPa	959.8
6246.2 kPa	959.9
6272.6 kPa	959.8
6294.4 kPa	960
6316.9 kPa	959.8
6344 kPa	959.8
6366.6 kPa	959.9
6393.8 kPa	960
6417.3 kPa	960
6441.6 kPa	959.9
6466 kPa	960
6489.5 kPa	960.2
6513.7 kPa	960
6542.9 kPa	960
6566.4 kPa	960
6595.3 kPa	960.1
6619.5 kPa	960.1
6644.3 kPa	960
6674.1 kPa	960.1
6699.1 kPa	960.1
6724.7 kPa	960.1
6755.6 kPa	960.2
6782.2 kPa	960.3
6809 kPa	960.2
6835.2 kPa	960.2
6861.8 kPa	960.1
6893.8 kPa	960.2
6920.9 kPa	960.2
6948.7 kPa	960.3
6976.5 kPa	960.3
7009.5 kPa	960.4
7037.3 kPa	960.3
7072 kPa	960.4
7101 kPa	960.5
7131.4 kPa	960.4
7161.8 kPa	960.4
7190 kPa	960.5
7218.1 kPa	960.4
7240 kPa	960.6
7262.7 kPa	960.5
7289.6 kPa	960.7
7312 kPa	960.5
7334.9 kPa	960.6
7357.8 kPa	960.5
7385.4 kPa	960.6
7408.7 kPa	960.6
7433.1 kPa	960.6
7457.4 kPa	960.6
7486.4 kPa	960.7
7510.8 kPa	960.7
7534.2 kPa	960.6
7558.2 kPa	960.7
7587.6 kPa	960.7
7611.9 kPa	960.8
7637.3 kPa	960.8
7666.8 kPa	960.8
7692.5 kPa	960.7
7717.9 kPa	960.9
7743.3 kPa	960.9
7773.8 kPa	960.8
7799.7 kPa	960.7
7826.1 kPa	960.9
7857.2 kPa	961
7883.6 kPa	960.9
7910 kPa	961
7941.6 kPa	961
7968.3 kPa	961
7995.6 kPa	961
8028.4 kPa	961
8056 kPa	961.1
